From patent US20060135773A1, “Trisubstituted nitrogen modulators of tyrosine phosphatases” (priority 2004, published 2006)
pIC50: −log10 of the molar value. Where a name gives a salt, the structure may show the parent alone.

Molecular target: T1, PTP-1B (Homo sapiens, UniProt P18031)
T1 construct: PTP-1B (purified, 1 mg/mL) as a 1:250 dilution
T1 sequence (P18031 1-321 limits assumed): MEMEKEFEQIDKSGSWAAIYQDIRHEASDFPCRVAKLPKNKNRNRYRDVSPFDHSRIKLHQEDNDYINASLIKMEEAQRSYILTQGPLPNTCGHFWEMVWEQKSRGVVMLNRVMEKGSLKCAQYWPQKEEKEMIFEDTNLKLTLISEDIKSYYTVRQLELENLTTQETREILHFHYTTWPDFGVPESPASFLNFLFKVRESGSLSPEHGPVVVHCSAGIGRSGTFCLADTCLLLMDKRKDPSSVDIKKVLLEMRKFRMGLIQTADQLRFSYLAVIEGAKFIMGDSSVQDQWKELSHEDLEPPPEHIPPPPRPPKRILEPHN
Test: pNPP tyrosine phosphatase inhibition assay, PTP-1B
Format: biochemical
Settings: pNPP assay, PTP-1B; read-out: Activity Class (IC50 ranges)
Experimental: The compounds provided herein are evaluated for biological activity as inhibitors of PTP-1B using, for example, a pNPP assay can be used to screen compounds for tyrosine phosphatase inhibitory activity as described in the Examples.
A 5× stock of pNPP (p-nitrophenol phosphate) substrate is prepared as 50 mM pNPP in assay buffer. Various tyrosine phosphatase solutions can be prepared as follows: • PTP-1B (purified, 1 mg/mL) as a 1:250 dilution (to a final concentration of 4:g/mL); • TC-PTP (NEB, 1000 units in 100:L) as a 1:50 dilution (to a final concentration of 2U/10:L (4:g/mL)); • CD45 (Calbiochem, 20:g, 400 units in 100:L) as a 1:50 dilution (to a final concentration of 0.8U/10:L (4:g/mL)); • LAR (NEB, 1000 units in 200:L) as a 1:75 dilution (to a final concentration of 0.7U/10:L (4:g/mL)); and • PTP-β (UBI, #14-350, 10,000 units, 40:g/571:L) as a 1:17.5 dilution (to a final concentration of 10U/10:L (4:g/mL));
The compound to be tested is prepared as 1:16.7 and 1:50 dilutions from stock in a total volume of […] DMSO to give final concentrations of 626 and 200:M. The reaction mixtures are prepared in a 96-well microtiter plate (on ice) as 55:L assay buffer, 5:L of the diluted compound (to a final concentration of 31.3 and 10:M), 20:L of the pNPP substrate solution (to a final concentration of 10 mM) and 20:L PTPase in assay buffer. The reactants are mixed well, the plate placed in a water bath at 30° C. and incubated for 10 minutes. The reaction is then terminated by adding 100:L of 2M K2CO3 per well, and the absorbance is measured at 405 nm by conventional means.
Unless otherwise indicated, this assay was used to determine activity for the selected compounds whose activity is provided in Table 1.

Compound | pIC50
{[4-(difluorophosphonomethyl)-3-chlorophenyl]methyl}(cyclohexylmethyl)[(2-methoxyphenyl)sulfonyl]amine [Compound 203] | 6.30 to 6.60
O=P(O)(O)C(F)(F)c1ccc(CN(Cc2ccc(C(F)(F)P(=O)(O)O)cc2)S(=O)(=O)c2ccc(Cl)c(Cl)c2)cc1 [Compound 77, {[4-({(3,4-Dichloro-benzenesulfonyl)-[4-(difluoro-phosphono-methyl)-benzyl]-amino}-methyl)-phenyl]-difluoro-methyl}-phosphonic acid] | 6.30 to 6.60
O=P(O)(O)C(F)(F)c1ccc(CN(Cc2ccc(C(F)(F)P(=O)(O)O)cc2)c2ccccc2)cc1 [Compound 64, {[4-({[4-(Difluoro-phosphono-methyl)-benzyl]-phenyl-amino}-methyl)-phenyl]-difluoro-methyl}-phosphonic acid] | 4.60 to 5.60
Methyl 2-(3-{4-[({[4-(difluorophosphonomethyl)-3-chlorophenyl]methyl}[(2-methoxyphenyl)sulfonyl]amino)methyl]phenyl}phenyl)acetate [Compound 191] | > 7.00
O=P(O)(O)C(F)(F)c1ccc(CN(Cc2ccc(C(F)(F)P(=O)(O)O)cc2)S(=O)(=O)Cc2ccccc2)cc1 [Compound 69, {[4-({[4-(Difluoro-phosphono-methyl)-benzyl]-phenylmethanesulfonyl-amino}-methyl)-phenyl]-difluoro-methy}-phosphonic acid] | 4.60 to 5.60
{[4-(difluorophosphonomethyl)-3-chlorophenyl]methyl}[(2 methoxyphenyl)sulfonyl]{[2-(3-methylthiophenyl)phenyl]methyl}amine [Compound 206] | > 7.00
COc1ccccc1S(=O)(=O)N(Cc1ccc(-c2ccc(C#N)cc2)cc1)Cc1ccc(C(F)(F)P(=O)(O)O)c(Cl)c1 [Compound 155, [(2-Chloro-4-{[(4′-cyano-biphenyl-4-ylmethyl)-(2-methoxy-benzenesulfonyl)-amino]-methyl}-phenyl)-difluoro-methyl]-phosphonic acid] | 6.60 to 7.00
{[4-(difluorophosphonomethyl)-3-chlorophenyl]methyl}[(2-(2,3-dihydrobenzo[b]furan-5-yl)phenyl)methyl][(2-methoxyphenyl)sulfonyl]amine [Compound 204] | > 7.00
[(2-Chloro-4-{[(2-chloro-4-fluoro-benzenesulfonyl)-(3′-cyano-biphenyl-4-ylmethyl)-amino]-methyl}-phenyl)-difluoro-methyl]-phosphonic acid [Compound 164] | > 7.00
O=P(O)(O)C(F)(F)c1ccc(CN(Cc2ccc(C(F)(F)P(=O)(O)O)cc2)S(=O)(=O)c2ccccc2)cc1 [Compound 60, {[4-({Benzenesulfonyl-[4-(difluoro-phosphono-methyl)-benzyl]-amino}-methyl)-phenyl]-difluoro-methyl}-phosphonic acid] | 6.30 to 6.60
O=P(O)(O)C(F)(F)c1ccc(CN(Cc2ccccc2-c2ccccc2)S(=O)(=O)c2cnccc2I)cc1Cl [Compound 230, [(4-{[Biphenyl-2-ylmethyl-(4-iodo-pyridine-3-sulfonyl)-amino]-methyl}-2-chloro-phenyl)-difluoro-methyl]-phosphonic acid] | 6.60 to 7.00
O=C(O)c1ccc(CN(Cc2ccc(C(=O)O)c(Br)c2)S(=O)(=O)c2ccccc2)cc1 [Compound 79, 2-bromo-4-([Benzenesulfonyl-(4-carboxybenzyl)-amino]-methyl)-benzoic acid] | < 4.60
O=P(O)(O)C(F)(F)c1ccc(CN(Cc2ccc(C(F)(F)P(=O)(O)O)cc2)S(=O)(=O)c2cccc(Cl)c2)cc1 [Compound 76, {[4-({(3-Chloro-benzenesulfonyl)-[4-(difluoro-phosphono-methyl)-benzyl]-amino}-methyl)-phenyl]-difluoro-methyl}-phosphonic acid] | 6.30 to 6.60
O=P(O)(O)C(F)(F)c1ccc(CN(Cc2ccc(C(F)(F)P(=O)(O)O)cc2)S(=O)(=O)c2ccccc2-c2ccccc2)cc1 [Compound 93, {[4-({(Biphenyl-2-sulfonyl)-[4-(difluoro-phosphono-methyl)-benzyl]-amino}-methyl)-phenyl]-difluoro-methyl}-phosphonic acid] | 6.30 to 6.60
O=P(O)(O)C(F)(F)c1ccc(CN(Cc2ccc(C(F)(F)P(=O)(O)O)cc2)S(=O)(=O)c2ccc(Oc3ccccc3)cc2)cc1 [Compound 70, [(4-{[[4-(Difluoro-phosphono-methyl)-benzyl]-(4-phenoxy-benzenesulfonyl)-amino]-methyl}-phenyl)-difluoro-methyl]-phosphonic acid] | 6.30 to 6.60

Further lines, results first:

pIC50 | Compound
< 4.60 | COc1ccccc1S(=O)(=O)N(Cc1ccc(OCC(=O)O)c(C(=O)O)c1)Cc1ccccc1-c1ccccc1 [Compound 224, 5-{[Biphenyl-2-ylmethyl-(2-methoxy-benzenesulfonyl)-amino]-methyl}-2-carboxymethoxy-benzoic acid]
< 4.60 | CCNc1ccc(S(=O)(=O)C(F)(F)F)cc1NC(=O)C1CCN(S(=O)(=O)c2cccs2)CC1 [Compound 88, 1-(Thiophene-2-sulfonyl)-piperidine-4-carboxylic acid (2-ethylamino-5-trifluoromethanesulfonyl-phenyl)-amide]
< 4.60 | COc1ccccc1S(=O)(=O)N(Cc1ccc(S(C)(=O)=O)cc1)Cc1ccc(OCC(=O)O)c(C(=O)O)c1 [Compound 134, 2-Carboxymethoxy-5-{[(4-methanesulfonyl-benzyl)-(2-methoxy-benzenesulfonyl)-amino]-methyl}-benzoic acid]
6.30 to 6.60 | 2,2-Dimethyl-propionic acid [(2-chloro-4-{[(3,4-dichloro-benzyl)-(2-methoxy-benzenesulfonyl)-amino]-methyl}-phenyl)-difluoro-methyl]-hydroxy-phosphinoyloxymethyl ester [Compound 150]
4.60 to 5.60 | COc1ccccc1S(=O)(=O)N(Cc1ccc(C(F)(F)P(=O)(O)O)c(Cl)c1)C(C)c1ccccc1 (centres unmarked) [Compound 166, [(2-Chloro-4-{[(2-methoxy-benzenesulfonyl)-(1-phenyl-ethyl)-amino]-methyl}-phenyl)-difluoro-methyl]-phosphonic acid]
< 4.60 | COc1ccccc1S(=O)(=O)N(Cc1ccc(C#N)cc1)Cc1ccc(C(O)C(O)C(=O)O)c(Br)c1 (centres unmarked) [Compound 123, 1,2-dihydroxy-3-{2-Bromo-4-[N-(4-cyanobenzyl)-N-(2-methoxy-benzenesulfonyl)aminomethyl]-phenyl}-propionic acid]
6.60 to 7.00 | COc1ccccc1S(=O)(=O)N(Cc1ccc(-c2ccc(CO)c(C(=O)O)c2)cc1)Cc1ccc(C(F)(F)P(=O)(O)O)c(Cl)c1 [Compound 200, 5-{4-[({[4-(difluorophosphonomethyl)-3-chlorophenyl]methyl}[(2-methoxyphenyl)sulfonyl]amino)methyl]phenyl}-2-(hydroxymethyl)benzoic acid,trisodium salt]
6.30 to 6.60 | O=P(O)(O)C(F)(F)c1ccc(CN(Cc2ccc(Cl)c(Cl)c2)S(=O)(=O)c2ccc(Oc3ccccc3)cc2)cc1Br [Compound 109, [(2-Bromo-4-{[(3,4-dichloro-benzyl)-(4-phenoxy-benzenesulfonyl)-amino]-methyl}-phenyl)-difluoro-methyl]-phosphonic acid]
6.30 to 6.60 | COC(=O)c1cccc(-c2ccc(CCN(Cc3ccc(C(F)(F)P(=O)(O)O)c(Cl)c3)S(=O)(=O)c3ccccc3OC)cc2)c1 [Compound 182, 4′-{2-[[3-Chloro-4-(difluoro-phosphono-methyl)-benzyl]-(2-methoxy-benzenesulfonyl)-amino]-ethyl}-biphenyl-3-carboxylic acid methyl ester]
< 4.60 | COc1ccccc1S(=O)(=O)N(Cc1ccc(-c2ccc(O)c(C(=O)O)c2)cc1)Cc1ccc(OCC(=O)O)c(Cl)c1 [Compound 222, 4′-{[(4-Carboxymethoxy-3-chloro-benzyl)-(2-methoxy-benzenesulfonyl)-amino]-methyl}-4-hydroxy-biphenyl-3-carboxylic acid]
6.60 to 7.00 | COc1ccccc1S(=O)(=O)N(Cc1ccc(-c2ccc3c(c2)C(=O)OC3)cc1)Cc1ccc(C(F)(F)P(=O)(O)O)c(Cl)c1 [Compound 197, 6-{4-[({[4-(difluorophosphonomethyl)-3-chlorophenyl]methyl}[(2-methoxyphenyl)sulfonyl]amino)methyl]phenyl}-3-hydroisobenzofuran-1-one]
